Where two headings read alike, the source gives them in different places. Ends that are not written are not given here.
Assays:
[1] = Head-to-side-chain cyclisation: Cys S-alkylation with bifunctional aldehyde linker 1-4 (benzyl bromide or bromoacetamide), then intramolecular reductive amination of the N-terminal amine with NaBH3CN (one pot, crude peptides); conditions: the molecule shown is the open-chain precursor, 100 mM MOPS pH 6.5 / about 20% MeCN, TCEP, 0.5 mM, 4.0 °C, 24.0 h, 2 steps, scale: 1 = smooth/efficient conversion to macrocycle as major UPLC-MS species, <1 = partial, mixture
streptavidin = streptavidin (Streptomyces avidinii, UniProt P22629); assay: HABA competition binding assay (competitive ligand-binding analysis); conditions: >10 μM given where no saturation, read-out: Kd,app
streptavidin, sequence (P22629 25-183): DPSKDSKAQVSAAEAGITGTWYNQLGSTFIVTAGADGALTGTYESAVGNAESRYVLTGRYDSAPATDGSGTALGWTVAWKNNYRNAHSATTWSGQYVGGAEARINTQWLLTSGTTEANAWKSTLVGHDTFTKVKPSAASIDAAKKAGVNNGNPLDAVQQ
Text: To pinpoint the binding mode of SAV_1–3 variants, we first synthesized the linear precursors and then prepared their modified and cyclized versions (Figure S13). […] To further elucidate the role of the free aldehyde for binding, we additionally prepared SAV_1–3 peptides that were modified with cyclization units bearing an alcohol moiety instead (Figures 6b and S13). […]
In vitro affinity measurements: To determine the affinity of the selected peptides for Streptavidin, a competitive binding experiment was performed similarly to previously described literature procedures.[7] In brief, for the competitive binding experiment, increasing amounts of peptide (final concentration 0.01 – 500 μM in 12.5% ACN + 0.1% TFA in PBS phosphate buffered saline (PBS, 137 mM NaCl, 2.7 mM KCl, 10 mM Na2HPO4, 2 mM […]
Streptavidin monomer (final concentration 1.5 mM/ 40 µM (SAV_1), 33 µM (SAV_2), 32 µM (SAV_3)). The reactions were allowed to reach equilibrium at room temperature (60 min.) and […]
IC50 values were obtained by fitting the average of three measurements to equation 1:
A = A + A500nm,max − A500nm,min (1) […]
where, A500nm is the measured absorbance at unbound peptide concentration, [L], and H is the Hill coefficient (H = 1 assumed for streptavidin-binding peptides). A500nm,min corresponds to the value measured in presence of 1 mM biotin and A500nm,max corresponds to absorbance values measured in absence of the peptide.
The Kd values for SAV_1_mod, SAV_1_cycl, and SAV_2_mod, SAV_1S_mod, and SAV_1S_cycl were obtained from their respective IC50 values using equation 2: […]

Molecule: CC(C)[C@H](NC(=O)[C@H](C)N)C(=O)N[C@@H](CO)C(=O)N[C@@H](CO)C(=O)NCC(=O)NCC(=O)N[C@@H](CO)C(=O)NCC(=O)N[C@@H](CSCC(=O)Nc1ccc(C=O)cc1)C(=O)N[C@@H](Cc1c[nH]c2ccccc12)C(=O)N[C@@H](C)C(N)=O
- ring closure, product found ([1]; 36-membered ring): 1

Molecule: CC(C)[C@H](NC(=O)[C@H](C)N)C(=O)N[C@@H](CC(N)=O)C(=O)N[C@@H](CCC(=O)O)C(=O)N[C@@H](CCCCN)C(=O)N[C@@H](Cc1c[nH]cn1)C(=O)N[C@@H](Cc1ccc(O)cc1)C(=O)N[C@@H](CSCC(=O)Nc1ccc(C=O)cc1)C(=O)N[C@@H](Cc1c[nH]c2ccccc12)C(=O)N[C@@H](C)C(N)=O
- ring closure, product found ([1]; 33-membered ring): 1

Molecule: CC(C)[C@H](NC(=O)[C@H](C)N)C(=O)N[C@@H](CC(N)=O)C(=O)N[C@@H](CCC(=O)O)C(=O)N[C@@H](CCCCN)C(=O)N[C@@H](Cc1c[nH]cn1)C(=O)N[C@@H](Cc1ccc(O)cc1)C(=O)N[C@@H](CSCc1ccc(C=O)cc1)C(=O)N[C@@H](Cc1c[nH]c2ccccc12)C(=O)N[C@@H](C)C(N)=O
- ring closure, product found ([1]; 31-membered ring): 1

Molecule: AWWTNDFCA-NH2 [SAV_1S]
- Kd (streptavidin; aldehyde-modified peptide (Figure 6b, column 3)): 5.16 ± 0.59 µM
- Kd (streptavidin; cyclic peptide (Figure 6b, column 4)): 0.164 ± 0.078 µM
- Kd (streptavidin; linear precursor peptide (Figure 6b, column 1)): > 10 µM

Molecule: CC(C)[C@H](NC(=O)[C@H](C)N)C(=O)N[C@@H](CO)C(=O)N[C@@H](CO)C(=O)NCC(=O)NCC(=O)N[C@@H](CSCC(=O)Nc1ccc(C=O)cc1)C(=O)N[C@@H](Cc1c[nH]c2ccccc12)C(=O)N[C@@H](C)C(N)=O
- ring closure, product found ([1]; 30-membered ring): 1

Molecule: CC(=O)N[C@@H](CCCCN)C(=O)N[C@H](C(=O)N[C@@H](CO)C(=O)N[C@@H](CO)C(=O)NCC(=O)NCC(=O)N[C@@H](CSCc1ccc(C=O)cc1)C(=O)N[C@@H](Cc1c[nH]c2ccccc12)C(=O)N[C@@H](C)C(N)=O)C(C)C [Ac-Lys-Val-Ser-Ser-Gly-Gly-Cys(CH2-C6H4-4-CHO)-Trp-Ala-NH2]
- ring closure, product found ([1]; 32-membered ring): < 1

Molecule: CC(C)[C@H](NC(=O)[C@H](C)N)C(=O)N[C@@H](CO)C(=O)N[C@@H](CO)C(=O)NCC(=O)NCC(=O)N[C@@H](CO)C(=O)NCC(=O)N[C@@H](CSCc1ccc(C=O)cc1)C(=O)N[C@@H](Cc1c[nH]c2ccccc12)C(=O)N[C@@H](C)C(N)=O
- ring closure, product found ([1]; 34-membered ring): 1

Molecule: CC(C)[C@H](NC(=O)[C@H](C)N)C(=O)N[C@@H](CO)C(=O)N[C@@H](CO)C(=O)NCC(=O)NCC(=O)N[C@@H](CO)C(=O)NCC(=O)N[C@@H](CSCC(=O)Nc1ccc2cc(C=O)ccc2c1)C(=O)N[C@@H](Cc1c[nH]c2ccccc12)C(=O)N[C@@H](C)C(N)=O
- ring closure, product found ([1]; 38-membered ring): 1

Molecule: COc1ccc(C=O)cc1NC(=O)CSC[C@H](NC(=O)CNC(=O)CNC(=O)[C@H](CO)NC(=O)[C@H](CO)NC(=O)[C@@H](NC(=O)[C@H](C)N)C(C)C)C(=O)N[C@@H](Cc1c[nH]c2ccccc12)C(=O)N[C@@H](C)C(N)=O
- ring closure, product found ([1]; 29-membered ring): 1

Molecule: CC(C)[C@H](NC(=O)[C@H](C)N)C(=O)N[C@@H](CO)C(=O)N[C@@H](CO)C(=O)NCC(=O)NCC(=O)N[C@@H](CSCc1ccc(C=O)cc1)C(=O)N[C@@H](Cc1c[nH]c2ccccc12)C(=O)N[C@@H](C)C(N)=O [H-Ala-Val-Ser-Ser-Gly-Gly-Cys(CH2-C6H4-4-CHO)-Trp-Ala-NH2]
- ring closure, product found ([1]; 28-membered ring): 1

Molecule: CC(C)[C@H](NC(=O)[C@H](C)N)C(=O)N[C@@H](CO)C(=O)N[C@@H](CO)C(=O)NCC(=O)NCC(=O)N[C@@H](CSCC(=O)Nc1ccc2cc(C=O)ccc2c1)C(=O)N[C@@H](Cc1c[nH]c2ccccc12)C(=O)N[C@@H](C)C(N)=O
- ring closure, product found ([1]; 32-membered ring): 1

Molecule: CC(C)[C@H](NC(=O)[C@@H](N)CCCCN)C(=O)N[C@@H](CO)C(=O)N[C@@H](CO)C(=O)NCC(=O)NCC(=O)N[C@@H](CSCC(=O)Nc1ccc(C=O)cc1)C(=O)N[C@@H](Cc1c[nH]c2ccccc12)C(=O)N[C@@H](C)C(N)=O
- ring closure, product found ([1]; 30-membered ring): 1

Molecule: COc1ccc(C=O)cc1NC(=O)CSC[C@H](NC(=O)CNC(=O)CNC(=O)[C@H](CO)NC(=O)[C@H](CO)NC(=O)[C@@H](NC(=O)[C@H](CCCCN)NC(C)=O)C(C)C)C(=O)N[C@@H](Cc1c[nH]c2ccccc12)C(=O)N[C@@H](C)C(N)=O
- ring closure, product found ([1]; 33-membered ring): < 1

Molecule: CC(C)[C@H](NC(=O)[C@@H](N)CCCCN)C(=O)N[C@@H](CO)C(=O)N[C@@H](CO)C(=O)NCC(=O)NCC(=O)N[C@@H](CSCc1ccc(C=O)cc1)C(=O)N[C@@H](Cc1c[nH]c2ccccc12)C(=O)N[C@@H](C)C(N)=O [H-Lys-Val-Ser-Ser-Gly-Gly-Cys(CH2-C6H4-4-CHO)-Trp-Ala-NH2]
- ring closure, product found ([1]; 28-membered ring): 1

Molecule: CC(=O)N[C@@H](CCCCN)C(=O)N[C@H](C(=O)N[C@@H](CO)C(=O)N[C@@H](CO)C(=O)NCC(=O)NCC(=O)N[C@@H](CSCC(=O)Nc1ccc2cc(C=O)ccc2c1)C(=O)N[C@@H](Cc1c[nH]c2ccccc12)C(=O)N[C@@H](C)C(N)=O)C(C)C
- ring closure, product found ([1]; 36-membered ring): < 1

Molecule: CC(=O)N[C@@H](CCCCN)C(=O)N[C@H](C(=O)N[C@@H](CO)C(=O)N[C@@H](CO)C(=O)NCC(=O)NCC(=O)N[C@@H](CSCC(=O)Nc1ccc(C=O)cc1)C(=O)N[C@@H](Cc1c[nH]c2ccccc12)C(=O)N[C@@H](C)C(N)=O)C(C)C
- ring closure, product found ([1]; 34-membered ring): < 1

Molecule: COc1ccc(C=O)cc1NC(=O)CSC[C@H](NC(=O)CNC(=O)CNC(=O)[C@H](CO)NC(=O)[C@H](CO)NC(=O)[C@@H](NC(=O)[C@@H](N)CCCCN)C(C)C)C(=O)N[C@@H](Cc1c[nH]c2ccccc12)C(=O)N[C@@H](C)C(N)=O
- ring closure, product found ([1]; 29-membered ring): 1

Molecule: COc1ccc(C=O)cc1NC(=O)CSC[C@H](NC(=O)[C@H](Cc1ccc(O)cc1)NC(=O)[C@H](Cc1c[nH]cn1)NC(=O)[C@H](CCCCN)NC(=O)[C@H](CCC(=O)O)NC(=O)[C@H](CC(N)=O)NC(=O)[C@@H](NC(=O)[C@H](C)N)C(C)C)C(=O)N[C@@H](Cc1c[nH]c2ccccc12)C(=O)N[C@@H](C)C(N)=O
- ring closure, product found ([1]; 32-membered ring): 1

Molecule: COc1ccc(C=O)cc1NC(=O)CSC[C@H](NC(=O)CNC(=O)[C@H](CO)NC(=O)CNC(=O)CNC(=O)[C@H](CO)NC(=O)[C@H](CO)NC(=O)[C@@H](NC(=O)[C@H](C)N)C(C)C)C(=O)N[C@@H](Cc1c[nH]c2ccccc12)C(=O)N[C@@H](C)C(N)=O
- ring closure, product found ([1]; 35-membered ring): 1

Molecule: CC(C)[C@H](NC(=O)[C@H](C)N)C(=O)N[C@@H](CC(N)=O)C(=O)N[C@@H](CCC(=O)O)C(=O)N[C@@H](CCCCN)C(=O)N[C@@H](Cc1c[nH]cn1)C(=O)N[C@@H](Cc1ccc(O)cc1)C(=O)N[C@@H](CSCC(=O)Nc1ccc2cc(C=O)ccc2c1)C(=O)N[C@@H](Cc1c[nH]c2ccccc12)C(=O)N[C@@H](C)C(N)=O
- ring closure, product found ([1]; 35-membered ring): 1

Molecule: CC(C)[C@H](NC(=O)[C@@H](N)CCCCN)C(=O)N[C@@H](CO)C(=O)N[C@@H](CO)C(=O)NCC(=O)NCC(=O)N[C@@H](CSCC(=O)Nc1ccc2cc(C=O)ccc2c1)C(=O)N[C@@H](Cc1c[nH]c2ccccc12)C(=O)N[C@@H](C)C(N)=O
- ring closure, product found ([1]; 32-membered ring): 1

Source: publication PMC8895403, “A Strategy to Select Macrocyclic Peptides Featuring Asymmetric Molecular Scaffolds as Cyclization Units by Phage Display” (Journal of the American Chemical Society, 2022)
